Measurements from patent US20230346670A1, “Prebiotic Oral Care Compositions and Methods” (Colgate-Palmolive Company, priority 2020, published 2023).
Several values for one entry are separate records, joined by “and”; a condition that tells them apart may be missing. Identical values can stand only once. Marks after values point to notes of the source that are not given here.

Key:
Assay type in all cases: cell-based
[1] = test system: S. sanguinis; test: Multi-species biofilm composition, absolute abundance (Geq/mL); conditions: repeated rinsing
Experimental: (§1) Biofilms are grown vertically on Calcium Deficient Hydroxyapatite (CAD-HA) disks (Hitemco Medical, Old Bethpage, USA) using the Amsterdam Active Adhesion model. Biofilms are allowed to establish during 24 h (37° C., 170 rpm) under microaerophilic conditions (6% O2, 7% CO2, 7% H2, 80% N2). After this 24 h, disks are rinsed 3 times a day for 3 minutes (RT, 250 rpm), for 3 consecutive days, by transferring the lid containing the disks to a new 24-well plate containing 2 mL/well of the appropriate substrate solution. As a negative control, PBS (pH 5.7) without substrate supplementation is used.
(§2) N-acetyl-D-glucosamine (NADG), α-D-lactose, D-(+)-trehalose and D-(+)-raffinose are selected to determine their effects on multi-species biofilm composition. […] decrease in absolute numbers in at least four of the pathogenic bacterial species tested in the assay, in comparison to the control, the results of which are described in Table 1 below. Note, NADG decreased absolute numbers of S. sobrinus. Absolute abundances of bacterial species are shown as mean ± SD (n = 3) logarithmic values of the genome equivalents per millilitre (log(Geq/mL)).

[2] = test system: S. mutans; test: as above; conditions: repeated rinsing
Experimental: as §1, §2

[3] = test system: V. parvula; test: as above; conditions: repeated rinsing
Experimental: as §1, §2

[4] = test system: S. salivarius; test: as above; conditions: repeated rinsing
Experimental: as §1, §2

[5] = test system: F. nucleatum; test: as above; conditions: repeated rinsing
Experimental: as §1, §2

[6] = test system: A. viscosus; test: as above; conditions: repeated rinsing
Experimental: as §1, §2

[7] = test system: multi-species biofilms; test: Organic acid levels in supernatant of multi-species biofilms (ion chromatography); conditions: >0 production, <0 consumption, n = 3
Experimental: as §1
Levels of organic acids in the filter sterilized supernatant of the multi-species biofilms are measured using a 761 Compact Ion Chromatograph (Metrhohm, Switzerland) with a Metrosep Organic acids Guard/4.6 guard column. The supernatants from the substrate-treated multi-species biofilms are analyzed to gain more insight into the influence of the substrates on organic acid consumption/production.

[8] = test system: P. intermedia virulence genes; test: Virulence gene expression in multi-species biofilm (SYBR RT-qPCR); conditions: relative to control = 1
Experimental: as §1
The virulence of the substrate-treated multi-species biofilms are evaluated by analyzing the relative expression of 33 genes that are recognized as being related to some form of virulence and from 4 periodontal pathogens.
Expression of bacterial virulence genes is analyzed through SYBR RT-qPCR and normalized for bacterial housekeeping gene expression. […] These effects are illustrated in Tables 6a and 6b:
Note, for Table 6d, fold changes in virulence gene expression are determined relatively to the control condition through the 2^^-ΔΔCt method and are shown as the geometric mean (C.I.) (n = 3) of the 2^^-ΔΔCt values. All substrates are dissolved in PBS at a concentration of 1 M (upper part) or 1%(w/v) (lower part). Values between 0 and 1 represent relative downregulation, values >1 represent relative upregulation. […] NADG: N-acetyl-D-glucosamine; C.I.: 95% confidence interval.

[9] = test system: human oral keratinocytes (HOK-18A); test: Inflammatory mediator gene expression in keratinocytes exposed to substrate-treated biofilms (SYBR RT-qPCR); conditions: relative to control, n = 3
Experimental: Cultures of immortalized human oral keratinocytes (HOK-18A) are grown. […] The IL-8 levels in the cellular supernatant are determined as well. RNA is converted to cDNA and relative expression of inflammatory mediator genes is determined as described above with respect to the cellular housekeeping gene β-actin.
In HOKs exposed to substrate-treated (substrate concentrations of […]) multi-species biofilms, there are mostly decreases in inflammatory mediator gene expression as measured via SYBR RT-qPCR, the results of which are detailed in Table 7:
Fold changes in inflammatory mediator gene expression from human oral keratinocytes (HOK-18A) exposed to substrate-treated multi-species biofilms are determined relatively to the control through the 2^^-ΔΔCt method and are shown as the geometric mean (C.I.) (n = 3) of the 2^^-ΔΔCt values. All substrates are dissolved in PBS at a concentration of 1 M (upper part) or 1%(w/v) (lower part). Values between 0 and 1 represent relative downregulation, values >1 represent relative upregulation.

[10] = lower part of Table 6d, head prints 1 M (lower part 1%(w/v))
[11] = upper part of Table 6d, substrate 1 M, n = 3
[12] = HOK-18A exposed to biofilms treated with substrate 1% (w/v)
[13] = HOK-18A exposed to biofilms treated with substrate 1 M

CC(=O)N[C@H]1C(O)O[C@H](CO)[C@@H](O)[C@@H]1O (stereo partly drawn) [NADG, N-acetyl-D-glucosamine]
absolute abundance of S. sanguinis, mean ± SD log (Geq/mL) ([1]; substrate 1% (w/v)): 8.40 ± 0.11 log (Geq/mL) | absolute abundance of S. sanguinis, mean ± SD log (Geq/mL) ([1]; substrate 1 M in PBS, n = 3): 6.43 ± 0.94 log (Geq/mL) | absolute abundance of S. mutans, mean ± SD log (Geq/mL) ([2]; substrate 1% (w/v)): 7.83 ± 0.23 log (Geq/mL) | absolute abundance of S. mutans, mean ± SD log (Geq/mL) ([2]; substrate 1 M in PBS, n = 3): 7.96 ± 0.10 log (Geq/mL) | absolute abundance of V. parvula (VP), mean ± SD log (Geq/mL) ([3]; substrate 1% (w/v)): 9.77 ± 0.19 log (Geq/mL) | absolute abundance of V. parvula (VP), mean ± SD log (Geq/mL) ([3]; substrate 1 M in PBS, n = 3): 9.91 ± 0.19 log (Geq/mL) | absolute abundance of S. salivarius, mean ± SD log (Geq/mL) ([4]; substrate 1% (w/v)): 2.65 ± 0.00 log (Geq/mL) | absolute abundance of S. salivarius, mean ± SD log (Geq/mL) ([4]; substrate 1 M in PBS, n = 3): 6.40 ± 0.29^∗ log (Geq/mL) | absolute abundance of F. nucleatum (Fn), mean ± SD log (Geq/mL) ([5]; substrate 1% (w/v)): 9.41 ± 0.19 log (Geq/mL) | absolute abundance of F. nucleatum (Fn), mean ± SD log (Geq/mL) ([5]; substrate 1 M in PBS, n = 3): 7.22 ± 0.28^∗ log (Geq/mL) | absolute abundance of A. viscosus (Av), mean ± SD log (Geq/mL) ([6]; substrate 1% (w/v)): 7.83 ± 0.31 log (Geq/mL) | absolute abundance of A. viscosus (Av), mean ± SD log (Geq/mL) ([6]; substrate 1 M in PBS, n = 3): 6.72 ± 0.22 log (Geq/mL) | acetate level in biofilm supernatant, mean ± SD ([7]; substrate 1% (w/v)): 379 ± 10 mg/L | butyrate level in biofilm supernatant, mean ± SD ([7]; substrate 1% (w/v)): 2238 ± 59 mg/L | formate level in biofilm supernatant, mean ± SD ([7]; substrate 1% (w/v)): 4315 ± 198 mg/L | lactate level in biofilm supernatant, mean ± SD ([7]; substrate 1% (w/v)): -125 ± 0 mg/L | propionate level in biofilm supernatant, mean ± SD ([7]; substrate 1% (w/v)): 2205 ± 89 mg/L | acetate level in biofilm supernatant, mean ± SD ([7]; substrate 1 M): 3815 ± 77 mg/L | butyrate level in biofilm supernatant, mean ± SD ([7]; substrate 1 M): 1255±51 mg/L and 1255 ± 51^∗ mg/L | formate level in biofilm supernatant, mean ± SD ([7]; substrate 1 M): 352 ± 18 mg/L | lactate level in biofilm supernatant, mean ± SD ([7]; substrate 1 M): -125 ± 0 mg/L | propionate level in biofilm supernatant, mean ± SD ([7]; substrate 1 M): 2750±40 mg/L and 2750 ± 40^∗ mg/L | fold change in DnaJ expression, geometric mean (95% C.I.) [8, 10]: 0.70 (0.50-0.99) fold | fold change in DnaK expression, geometric mean (95% C.I.) [8, 10]: 0.77 (0.34-1.77) fold | fold change in ECF expression, geometric mean (95% C.I.) [8, 10]: 0.48 (0.11-2.02) fold | fold change in GroES expression, geometric mean (95% C.I.) [8, 10]: 0.75 (0.49-1.14) fold | fold change in HtpG expression, geometric mean (95% C.I.) [8, 10]: 0.46 (0.22-0.94)* fold | fold change in KpsD expression, geometric mean (95% C.I.) [8, 10]: 0.78 (0.37-1.62) fold | fold change in adpc expression, geometric mean (95% C.I.) [8, 10]: 0.67 (0.64-0.69) fold | fold change in clpB expression, geometric mean (95% C.I.) [8, 10]: 1.06 (0.58-1.96) fold | fold change in inpA expression, geometric mean (95% C.I.) [8, 10]: 0.53 (0.24-1.17)* fold | fold change in phg expression, geometric mean (95% C.I.) [8, 10]: 0.69 (0.47-1.00) fold | fold change in DnaJ expression, geometric mean (95% C.I.) [8, 11]: 0.64 (0.35-1.16) fold | fold change in DnaK expression, geometric mean (95% C.I.) [8, 11]: 2.34 (1.23-4.43)* fold | fold change in ECF expression, geometric mean (95% C.I.) [8, 11]: 20.32 (4.81-85.88)^∗ fold | fold change in GroES expression, geometric mean (95% C.I.) [8, 11]: 1.86 (1.38-2.50) fold | fold change in HtpG expression, geometric mean (95% C.I.) [8, 11]: 3.40 (2.27-5.08)* fold | fold change in KpsD expression, geometric mean (95% C.I.) [8, 11]: 1.72 (0.62-4.72) fold | fold change in adpc expression, geometric mean (95% C.I.) [8, 11]: 2.65 (1.25-5.62)* fold | fold change in clpB expression, geometric mean (95% C.I.) [8, 11]: 2.03 (0.94-4.41) fold | fold change in inpA expression, geometric mean (95% C.I.) [8, 11]: 4.52 (4.14-4.94)^∗ fold | fold change in phg expression, geometric mean (95% C.I.) [8, 11]: 0.57 (0.38-0.85)* fold | fold change in IL-1β gene expression, geometric mean (C.I.) [9, 12]: 0.71 (0.38-1.33)^∗ fold | fold change in IL-6 gene expression, geometric mean (C.I.) [9, 12]: 0.73 (0.58-0.93)^∗ fold | fold change in IL-8 gene expression, geometric mean (C.I.) [9, 12]: 1.00 (0.78-1.27) fold | fold change in MMP-8 gene expression, geometric mean (C.I.) [9, 12]: 0.52 (0.17-1.6)^∗ fold | fold change in TNF-α gene expression, geometric mean (C.I.) [9, 12]: 0.71 (0.28-1.35)^∗ fold | fold change in IL-1β gene expression, geometric mean (C.I.) [9, 13]: 0.75 (0.55-1.02) fold | fold change in IL-6 gene expression, geometric mean (C.I.) [9, 13]: 0.57 (0.46-0.71) fold | fold change in IL-8 gene expression, geometric mean (C.I.) [9, 13]: 0.14 (0.06-0.36)^∗ fold | fold change in MMP-8 gene expression, geometric mean (C.I.) [9, 13]: 1.28 (0.79-2.08) fold | fold change in TNF-α gene expression, geometric mean (C.I.) [9, 13]: 0.89 (0.59-1.34) fold
